From US20040106120A1, “Diagnosis and treatment of disease” (priority 2000, published 2004)

How the values were obtained:
[1] = test system: reconstituted human epidermis cultures (skin equivalents); assay: Treatment of skin equivalents (reconstituted human epidermis cultures) for 16 hours, light microscopy histology; assay type: cell-based; settings: 16 hours at 37° C; for effect of cytokine on stratum corneum thickness of skin equivalent: 2.5 ng/ml added to medium; for effect of peptide on stratum corneum of skin equivalent: 6 μM peptide, 200 μl applied to surface, versus buffered salt solution
Procedure: (§1) 1 ml of room temperature SkinEthic maintenance medium is added to each well of 6-well tissue culture plates (one well per skin equivalent). The cell culture inserts containing the skin equivalents are removed from the agarose transportation medium using sterile forceps and placed in the wells ensuring no air bubbles are formed. The well plates are placed in a humid incubator at 37° C., 5% CO2. After 24 hours the medium is changed and the appropriate treatment is applied. 200 μl of each treatment is applied to the surface of the skin equivalent as follows: Control—buffered salt solution; 10% foetal bovine serum; 0.25% chymotrypsin; 6 μM Peptide 643.
All reagents are made up to the correct concentration in a buffered salt solution comprising the following in 1 litre: 0.142 g Na2HPO4, 1.802 g Glucose, 7.149 g HEPES, 0.224 g KCl, 7.597 g NaCl, pH 7.4.
Treatments are allowed to act on the cultures for 16 hours at 37° C.
The skin equivalents and membranes are cut from the cell culture insert using a scalpel. The equivalents are fixed in 10% formalin (3.7% formaldehyde) in phosphate buffered saline for 24 hours at 4° C. Samples are washed in 3 changes of PBS. The PBS is the decanted from the samples which are dehydrated in 3×5 minute changes of 70% ethanol, 2×5 minute changes of 95% ethanol and 2×5 minute changes of 100% ethanol. The samples are then placed in xylene for 5 minutes and then molten paraffin for infiltration for 5 minutes. The samples are occasionally agitated during each of the steps. The equivalents are then oriented in more molten paraffin in an embedding mould and allowed to set for 1 hour.
5 μm sections are taken of each block and collected on glass microscope slides. The slides are dried at 50° C. overnight.
The slides are racked and placed in xylene for 2×5 minute washes to remove any unwanted paraffin. The slides are then rehydrated by placing them for 5 minutes in each of the following; 2×100% ethanol, 1×95% ethanol, 1×70% ethanol. The slides are then rinsed in running tap water for 1 minute. Staining is with Gill's haematoxylin (2 minutes) followed by rinsing in water for 2 minutes then placing in 1% eosin for 5 minutes and rinsing briefly in water. The samples are dehydrated once more by placing in 70% ethanol for 30 seconds, 95% ethanol for 30 seconds and 2 changes of 100% ethanol for 1 and 2 minutes each. The slides are then placed in xylene for 1 minute before mounting coverslips with DPX mountant for microscopy.
Slides are examined under light microscope at using the 40×objective lens and typical images are captured onto the PC using Synoptics Acquis Pro.
as §1, with “applied.” for “applied. 200 μl of each treatment is applied to the surface of the skin equivalent as follows: Control—buffered salt solution; 10% foetal bovine serum; 0.25% chymotrypsin; 6 μM Peptide 643.”
200 μl of the following treatments are applied to the surface of the skin equivalents: (1) Control—buffered salt solution; (2) 6 μM Peptide 641; (3) 6 μM Peptide 642; (4) 6 μM Peptide643; (5) 6 μM Peptide 651; (6) 6 μM Peptide 653.
The following treatments are diluted from stock solutions (10 μg/ml TNF-α, 1 μg/m IL-1β) directly into 1 ml of medium and added to the well during the medium change: (7) 2.5 ng/ml TNF-α; and (8) 75 ng/ml IL-1β.

[2] = biological target: chymotrypsin (Bos taurus, UniProt P00766); assay: Chymotrypsin proteolysis of synthetic corneodesmosin peptides; assay type: biochemical; settings: peptide exposed to chymotrypsin in appropriate buffer
Description: Peptides corresponding to fragments of corneodesmosin, and comprising amino acids at and around position 40 (L20815; corresponding to position 180 on the nucleotide sequence) are synthesised. The peptides are exposed to chymotrypsin in appropriate buffer, and the digestion products identified. Chymotrypsin is known to cleave the peptide bond C-terminal to a F, Y or W residue, but not C-terminal to an L residue.
Peptides P1 and P2 (size 38 amino acids, comprising L and F at position 40 of L20815 respectively) are exposed to chymotrypsin. Peptide P1 has the sequence PTRITSPNDPCL40[…], while peptide P2 has the sequence PTRITSPNDPCF40[…].
The above results are confirmed by using the ExPASy Molecular Biology Server at http://www.expasy.ch/.

[3] = test system: psoriatic skin biopsy (stratum corneum); assay: Treatment of skin biopsies from psoriatic patients with protease, transmission electron microscopy; set-up: species or system human; settings: 0.25% chymotrypsin, 16 hours at 37° C, versus untreated half
Procedure: All biopsies are carried out by a dermatologist in an operating theatre. Aseptic technique is employed and sterile/disposable equipment used throughout the procedure. Two skin biopsies are taken from the lower back of each patient, one from an area of active plaque psoriasis and the other from an uninvolved site at least 10 cm away. The lower back is cleaned with antiseptic solution and local anaesthetic introduced to the intended areas of biopsy. Ellipses approximately 1.5 cm by 0.5 cm are excised from both lesional and non-lesional skin and placed in a container with PBS solution. The wounds are sutured using catgut for deep sutures and ethilon for superficial sutures (employing two or three stitches per wound). After the operation the wounds are covered with a sterile dressing and the patient observed for 30 minutes before being allowed home. Sutures are removed two weeks later.
The following procedures are performed under aseptic conditions: The psoriatic skin biopsy is cut into 2 pieces using a sterile scalpel. One half of the biopsy is placed in 2 ml of 0.25% chymotrypsin (diluted from a 10×stock in skin maintenance medium, Skinethic) in one well of a 24-well plate. The other half is incubated in 2 ml of maintenance medium with no additions. […]
Ultrathin sections (70-90 nm) are cut on an ultramicrotome. […] Electron micrographs are recorded on Agfa Scientia 23D56 EM film.

With TNF-α the “effect of cytokine on stratum corneum thickness of skin equivalent” value [1] was “increase in the thickness of the stratum corneum”.

“NH2-leu-asp-pro-val-asp-thr-pro-asn-pro-thr-arg-arg-lys-pro-gly-COOH [Peptide 653]” was tested, and the “effect of peptide on stratum corneum of skin equivalent” value (“effect of peptide” for short) [1] was “increase in the thickness of the stratum corneum”.

With “PTRITSPNDPCF40TGKGDSSGFSGSSSSGSSISSAR [peptide P2]” the “products of proteolysis by chymotrypsin” value [2] was “three small peptides”.

In the case of “NH2-cys-val-ser-pro-val-lys-ala-COOH (H-CVSPVKA-OH) [Peptide 643, fragment of SLPI (CVSPVKA)]”, the “effect of peptide” value [1] is reported as “thickening of the stratum corneum”.

For “NH2-leu-asp-pro-val-asp-COOH [Peptide 651]”, the “effect of peptide” value [1] was “increase in the thickness of the stratum corneum”.

With “NH2-met-glu-asn-ser-leu-gly-pro-phe-pro-gln-cys-COOH (H-MENSLGPFPQC-OH) [Peptide 641, fragment of Desmocollin 1 (…)]” the “effect of peptide” value [1] was “more permeable”.

With “IL-1β: cytokine purchased from Calbiochem” the “effect of cytokine on stratum corneum thickness of skin equivalent” value [1] was “increase in the thickness of the stratum corneum”.

For “PTRITSPNDPCL40TGKGDSSGFSGSSSSGSSISSAR [peptide P1]”, the “products of proteolysis by chymotrypsin” value [2] was “two products of proteolysis”.

For “NH2-ser-gly-lys-arg-asp-lys-ser-glu-glu-val-gln-cys-COOH (H-SGKRDKSEEVQC-OH) [Peptide 642, fragment of Desmoplakin (…)]”, the “effect of peptide” value [1] was “more permeable”.

chymotrypsin was tested, and the “corneodesmosomes visible in stratum corneum” value [3] was “far fewer corneodesmosomes are visible”, the “stratum corneum morphology (corneocyte layers)” value [3] was “splitting of the layers of corneocytes (acantholysis)” and the “effect of protease on stratum corneum barrier of skin equivalent” value ([1]; applied to surface, chymotrypsin 0.25%) was “degrades the barrier of the stratum corneum”.
